In patent US20250263439A1, “HETERODIMERIC PEPTIDE REAGENTS AND METHODS” (REGENTS OF THE UNIVERSITY OF MICHIGAN, priority 2018, published 2025):
“And” between values parts separate entries of the source, which are not always exact repeats. Identical values can stand only once. “Also recorded” adds a separate entry of the source. Bridge positions count the residues as written; N and C are the ends. Square brackets hold non-standard residues; d marks the D form. Ends that are not written are not given here. Peptide text beside a SMILES is read from it. I, II: the chains in the order shown. * marks the point of attachment. X1 = CC1(C)C(=CC=C2CCCC(C=CC3=[N+](CCCCCC(=O)NCCN4C(=O)CC(*)C4=O)c4ccc(S(=O)(=O)O)cc4C3(C)C)=C2Oc2ccc(S(=O)(=O)O)cc2)N(CCCCS(=O)(=O)[O-])c2ccc(S(=O)(=O)O)cc21; AEEEA = NCCOCCOCCOCC(=O)O

Experiments:
[1] = tested on: OE33 cells; test: Apparent dissociation constant by flow cytometry with OE33 cells; assay type: binding, human; settings: flow cytometry, 4° C.
Experimental: The apparent dissociation constant (Kd) was measured to assess binding affinity of the heterodimer to OE33 cells. The heterodimer was serially diluted in PBS at concentrations of about 0, 10, 25, 50, 100, and 200 nM with about […] at 4° C. for one hour and washed with cold PBS. The mean fluorescence intensities were measured with flow cytometry (BD LSRII, BD Biosciences). The equilibrium dissociation constant Kd 1/Ka was calculated with a least-squares fit of the data to the nonlinear equation I=(I0+ImaxKa[X])/(I0+Ka[X]). I0 and Imax are the initial and maximum fluorescence intensities, corresponding to no peptide and at saturation, respectively, and [X] represents the concentration of bound peptide. Prism 5.0 software (Graphpad Inc.) was used to calculate Kd and Ka.

[2] = tested on: OE33 cells; test: Apparent association time constant by flow cytometry with OE33 cells; assay type: binding, human; settings: for apparent association time constant Ka: flow cytometry, 1 μM, 4° C.; for apparent association time constant (time): value in brackets after Ka
Experimental: The apparent association time constant (Ka) was measured to assess binding kinetics to OE33 cells. OE33 cells were grown to about 80% confluence in 10 cm dishes, and cells were then detached with PBS-based cell dissociation buffer (Invitrogen). About 10^5 cells were incubated with 1 μM of the heterodimer at 4° C. for different time periods ranging from […]. The cells were centrifuged, washed with cold PBS, and fixed with 4% PFA. Flow cytometry was performed, and the median fluorescence intensity (y) was ratioed with that of OE33 cells without addition of peptide at time points (t) using Flowjo software. The rate constant K was calculated by fitting the data to the first-order kinetics model, y(t)=Imax[1−exp^(−kt)], where Imax=maximum value, using Prism 5.0 software.

[3] = Marshall et al.; cited from earlier work
[4] = tested on: human OE33 xenograft tumors; test: In vivo fluorescence (FL) imaging of OE33 xenograft tumors (IRDye800); design: species or system mice; settings: for Fluorescence T/B ratio, mean (±SD): 2 hours post-injection, n=6 mice
Experimental: (§1) FL and PA images were collected following systemic administration of QRH*-KSP*-E3-IRDye800 and (GGGAGGG (SEQ ID NO: 28))2-E3-IRDye800 (control) in human OE33 xenograft tumors to characterize pharmacokinetics. […] The mean intensity for either modality regressed to baseline at ˜24 hours post-injection.

[5] = tested on: human OE33 xenograft tumors; test: In vivo photoacoustic (PA) imaging of OE33 xenograft tumors (IRDye800); design: species or system mice; settings: for Photoacoustic T/B ratio, mean: 2 hours post-injection
Experimental: as §1
Dual-modal images were collected at 2 hours following heterodimer injection to assess imaging depth. […] An ultrasound image confirmed tumor structure, FIG. 20D.

[6] = tested on: EGFR and ErbB2 mediated signaling; test: Effect on downstream cell signaling in SKBr3 cells (Western blot); assay type: cell-based, human
Experimental: The effect of heterodimer binding on downstream signaling was evaluated in SKBr3 cells. SKBr3 cells were seeded in 6-well flat-bottom plates. […] EGF (#E9644, Sigma) was reconstituted to 1 mg/mL using 10 mM acetic acid, diluted with 0.1% BSA, and added to SKBr3 cells at a concentration of 100 ng/mL. Lapatinib (CDS022971, Sigma) was diluted to 100 nM in DMSO and PBS from 1 mg/mL stock solution, and was added to the cells incubated with heterodimer at concentrations of 1, 5, and 20 μM in separate wells.

[7] = tested on: Flo1-HER2 cells; test: Confocal binding of FITC-labeled candidate peptides to Flo1-HER2 cells; assay type: cell-based; settings: FITC label, among five leading candidates
Experimental: A FITC label was attached to each peptide, and binding to Flo1-HER2 and QhTERT cells (control) was imaged using confocal microscopy. […] From the model, this peptide was determined to bind to HER2 domain 3. The peptide was then labeled for deep tissue imaging with a Cy5.5 fluorophore via a GGGSK (SEQ ID NO: 3) linker on the C-terminus, hereafter KSP*-Cy5.5. Cy5.5 was chosen for high quantum yield and photostability. The linker prevents steric hindrance by spatially separating the fluorophore from the peptide. A scrambled sequence PPSNFKR (SEQ ID NO: 4) was developed for use as control by altering the conformationally rigid spacer PNP and moving both hydrophobic and hydrophilic amino acids at the C-terminus. This control peptide also was linked to Cy5.5 via GGGSK (SEQ ID NO: 3), hereafter PPS*-Cy5.5. […] The fluorescence emission peak occurs at 708 nm in the NIR spectrum.

[8] = tested on: OE19, OE21, OE33 and SKBr3 cancer cells; test: Cytotoxicity of IRDye800 heterodimer in panel of human cancer cells; assay type: cell-based; settings: 48 hours, concentrations up to 500 μg/mL
[9] = tested on: SKBr3 cells; test: Confocal cell surface binding of IRDye800 heterodimer to cell panel; assay type: cell-based, human
Experimental: Confocal microscopy was performed to validate specific heterodimer binding. […] AF568-labeled anti-EGFR and AF488-labeled anti-HER2 antibodies were used as positive controls to confirm EGFR and HER2 expression by the cell panel. Heterodimer and antibody binding to the surface (arrows) of SKBr3 cells co-localize, and a Pearson's coefficient of ρ=0.58 and 0.65 was measured for EGFR and HER2, respectively, on merged images, FIG. 23A-F.

[10] = tested on: human OE33 xenograft tumors; test: Biodistribution of IRDye800 heterodimer in major organs; design: species or system mice; settings: mouse, in vivo
Experimental: (§2) Tumor-bearing mice were sacrificed at 2 hours post-injection of heterodimer or control peptide.

[11] = FL intensity in serum of tumor bearing mice over 48 hours; assay type: in vivo; settings: mouse, 45 nmol
Experimental: FIG. 19A) White light and FIG. 19B) FL images (λex=800 nm) are shown of heterodimer distribution in major organs at 2 hours post-injection. FIG. 19C) Mean (±SD) fluorescence intensity for heterodimer and control peptide was shown from n=6 mice each. […] FIG. 19D) FL intensity from serum of tumor bearing mice injected with heterodimer (300 μM, 150 μL PBS, n=6) is shown over 48 hours. Blood prior to heterodimer injection is shown as control.
as §2

[12] = tested on: OE33 human xenograft tumor; test: Immunofluorescence of OE33 xenograft tumor sections ex vivo
Experimental: Immunofluorescence was performed to validate target expression in sections of OE33 human xenograft tumor ex vivo.

QRH*-GGGSK-Cy5.5 (QRHKPREGGGSK-NH2; also: Cy5.5 label on C-terminal Lys side chain) [QRH*-Cy5.5]
Kd [1]: 98 nM | apparent association time constant Ka [2]: 0.21 min⁻¹ | apparent association time constant (time) [2]: 4.7 min and 4.8 min

KSP*-GGGSK-Cy5.5 (KSPNPRFGGGSK-NH2; also: Cy5.5 label on C-terminal Lys side chain) [KSP*-Cy5.5]
Kd [1]: 54 nM | apparent association time constant Ka [2]: 0.35 min⁻¹ | apparent association time constant (time) [2]: 2.8 min and 2.9 min

IRDye800
safety in animals [3]: safe

(GGGAGGG)2-E3-IRDye800: control peptide for the IRDye800 heterodimer (also: dimer via E3 linker, IRDye800 label) [reference compound]
Fluorescence T/B ratio, mean (±SD) [4]: 3.89±0.94 | Photoacoustic T/B ratio, mean [5]: 1.44±0.21

CS(=O)(=O)CCNCc1ccc(-c2ccc3ncnc(Nc4ccc(OCc5cccc(F)c5)c(Cl)c4)c3c2)o1 [lapatinib, reference compound]
expression of phosphorylated EGFR / ErbB2 / AKT / ERK ([6]; 100 nM lapatinib): reduced expression

EGF (NSDSECPLSHDGYCLHDGVCMYIEALDKYACNCVVGYIGERCQYRDLKWWELR; Epidermal growth factor; UniProt P01133 971-1023, looked up) [an endogenous ligand for EGFR, positive control, reference compound]
p-AKT and p-ERK ([6]; EGF 100 ng/mL, positive control): strong phosphorylation activity; also recorded: increased expression

KSPNPRF (also: FITC label)
mean fluorescence intensity with binding to Flo1-HER2 [7]: highest mean fluorescence intensity

CC1(C)C(=CC=C2CCCC(C=CC3=[N+](CCCCCC(=O)NCCN4C(=O)CC(SC[C@H](NC(=O)[C@H](CCCCNC(=O)COCCOCCOCCNC(=O)[C@H](CCC(=O)O)NC(=O)[C@H](CCCNC(=N)N)NC(=O)[C@@H]5CCCN5C(=O)[C@H](CCCCN)NC(=O)[C@H](Cc5c[nH]cn5)NC(=O)[C@H](CCCNC(=N)N)NC(=O)[C@@H](N)CCC(N)=O)NC(=O)COCCOCCOCCNC(=O)[C@H](Cc5ccccc5)NC(=O)[C@H](CCCNC(=N)N)NC(=O)[C@@H]5CCCN5C(=O)[C@H](CC(N)=O)NC(=O)[C@@H]5CCCN5C(=O)[C@H](CO)NC(=O)[C@@H](N)CCCCN)C(N)=O)C4=O)c4ccc(S(=O)(=O)O)cc4C3(C)C)=C2Oc2ccc(S(=O)(=O)O)cc2)N(CCCCS(=O)(=O)[O-])c2ccc(S(=O)(=O)O)cc21 (stereo partly drawn) [QRH*-KSP*-E3-IRDye800] (I: H-KSPNPRF[AEEEA]KC(X1)-NH2 / II: H-QRHKPRE[AEEEA]; amide I:9-II:C)
cytotoxicity [8]: Negligible cytotoxicity; also recorded: No cytotoxicity | binding to surface of SKBr3 cells ([9]; confocal microscopy): Strong fluorescence intensity; also recorded: Strong binding | mean fluorescence intensity SKBr3 versus OE21, OE19, and QhTERT cells ([9]; paired t-test): significantly greater | Fluorescence T/B ratio, mean (±SD) [4]: 3.89±0.94 | time of peak FL T/B ratio / intensity post-injection ([4]; intravenous): 2 h | mean FL T/B ratio versus control peptide or PBS ([4]; mouse, in vivo): significantly greater | time of regression of FL intensity to baseline / clearance ([4]; post-injection): ~24 h | Photoacoustic T/B ratio, mean [5]: 2.44±0.36 | time of peak PA T/B ratio / intensity post-injection ([5]; intravenous): 2 h | mean PA T/B ratio versus control peptide or PBS ([5]; mouse, in vivo): significantly greater | time of regression of PA intensity to baseline / clearance ([5]; post-injection): ~24 h | tumor uptake (biodistribution) [10]: high tumor uptake | half-life [11]: ~3 h | T/B ratio ([12]; OE33 xenograft tumor sections, 3 boxes of 20×20 μm2): 5.0±0.8 | binding to surface of OE33 xenograft tumor cells ([12]; immunofluorescence of sections): strong binding
